From article PMC8236048, “Pharmaceutical design of a delivery system for the bacteriocin lacticin 3147” (Drug Delivery and Translational Research, 2021)

Tests used:
L. lactis HP = details: at a neutral pH; cited from earlier work
Excerpt: Lacticin 3147 is a two-peptide (Ltnα and Ltnβ) bacteriocin produced by Lactococcus lactis DPC6577 (Fig. 1). It is classified as a lantibiotic due to the presence of lanthionine rings in its structure. The two peptides act synergistically, targeting lipid II, a precursor of peptidoglycan synthesis in Gram-positive bacteria, leading to inhibition of cell wall synthesis, pore formation, and eventual cell death. […] These masses correspond with those previously reported in the literature. Lacticin 3147′s activity against various strains including L. monocytogenes and C. difficile has been previously reported in the literature; however, for the purpose of this study, L. monocytogenes was used to establish the impact of solution composition, pH, and process ...

α-chymotrypsin = biological target: T1, α-chymotrypsin (Bos taurus, UniProt P00766); test: Enzyme degradation of lacticin 3147 by α-chymotrypsin (activity, MALDI-TOF); type: in vitro ADME; details: 25 mg/ml α-chymotrypsin, 3 h, 37 °C; then growth curve at 400 nM peptides
T1 construct: purchased Sigma-Aldrich Ireland Ltd
Method: (§1) Lacticin 3147 production was confirmed by matrix-assisted laser desorption ionization-time of flight (MALDI-TOF) mass spectrometry using sinapinic acid as the matrix. About 0.7 μl of the matrix solution (sinapinic acid, 4 mg/ml in 50% acetone/50% methanol) was added to the target plate and left to evaporate (30 s) at ambient conditions. Individual peptides (Ltnα or Ltnβ) were resuspended in 70% IPA and mixed at a 1:1 volume ratio with a 10-mg/ml stock solution of sinapinic acid in 60% ACN with 0.1% TFA. About 0.3 μl of this peptide-matrix solution was then added to the matrix layer previously applied to the plate and evaporated at ambient conditions. The plate was inserted into a MALDI-TOF Ultraflex mass spectrometer (Bruker) and analysed using reflectron positive 700–3500 Da mode. 100 shots were fired at 88% intensity. This method was also used for the analyses of samples from the enzyme degradation studies.
(§2) Trypsin and α-chymotrypsin stock solutions (50 mg/ml) were resuspended in water. Pepsin (50 mg/ml) was resuspended in 0.02 M HCL. About 1 mg/ml individual solutions of Ltnα and Ltnβ in 70% IPA were filtered and diluted (1 in 20) in sterile PBS to give a final peptide concentration of 50 µg/ml. After this, 5.3 µl Ltnα and 4.6 µl Ltnβ were added to the same well of a 96-well plate. The pH of the lacticin 3147-pepsin solution was 2.29. Control wells consisting of Ltnα and Ltnβ together, Ltnα alone, and Ltnβ alone with no enzyme were included. The 96-well plate was incubated for 3 h at 37 °C to allow the enzyme to act. After incubation, the wells were filled to 50 μl with PBS and 150 μl of diluted bacterial cell culture (L. monocytogenes at an OD of 0.1) was added to each well. The final peptide concentration of 400 nM (1.31 µg/ml Ltnα, 1.14 µg/ml Ltnβ) was obtained when the wells were filled to 200 µl. […] The effect of the proteases pepsin, α-chymotrypsin, and trypsin on the lacticin 3147 peptides was determined by MALDI-TOF mass spectrometry. […] After 3 h, 1 µl was removed from each sample and it was analysed by MALDI-TOF mass spectrometry. […]

pepsin [1] = biological target: T2, pepsin (Sus scrofa, UniProt P00791); test: Enzyme degradation of lacticin 3147 by pepsin (activity, MALDI-TOF, RP-HPLC); type: in vitro ADME; details: 25 mg/ml pepsin, 3 h, 37 °C, pH 2.29; then growth curve at 400 nM peptides
T2 construct: purchased Sigma-Aldrich Ireland Ltd
Method: as §1
All lacticin 3147 samples were filtered through a 0.2-µm PES filter before analysis by RP-HPLC using an Agilent 1200 Infinity Series HPLC (Agilent Technologies, USA). The HPLC separations were carried out on an Aeris 3.6 µm Peptide 100 Å 250 × 4.6 mm, liquid chromatography column with a flow rate of 0.8 ml/min, and with 0.1% trifluoroacetic acid (TFA) in water as aqueous phase-A and 0.1% TFA in acetonitrile (ACN) as organic phase-B. The total run time was 51 min. The mobile phase started with 30:70 A:B for 3 min and change linearly to 35:65 A:B over 30 min. The organic phase was then adjusted to 100% within 1 min and continued to flow for 5 min. After this, the mobile phase returned to the initial ratio to stabilize the chromatographic system. The detector was set at 214 nm. The peak area (mAU) was plotted against the concentration (1.56–500 µg/ml) to make a calibration curve. The coefficients of determination (R^2 values) were 0.9963 and 0.9983 for Ltnα and Ltnβ respectively. This method was subsequently used for quantitative analysis of Ltnα and Ltnβ.
as §2, with “µl. Blanks were set up in triplicate with media only and PBS only. The three control wells were also set up with bacterial culture and each enzyme only.” for “µl.”
Pepsin’s effect on lacticin 3147 was also investigated by RP-HPLC. […] After incubation, aliquots were taken, filtered, and analysed by RP-HPLC to determine if pepsin degrades Ltnα or Ltnβ to any extent.

[2] = tested on: L. monocytogenes ATCC1916; test: Well diffusion assay after incubation with α-chymotrypsin; type: cell-based
Method: α-SLN and β-SLN were filtered using a 0.2-µm PES filter, and 25 µl of each were added to the same well of a 96-well plate. About 50 µl of a 50 mg/ml solution of α-chymotrypsin was added to these wells. A blank was set up with 50-µl water instead of α-chymotrypsin. This was repeated for free peptide solutions prepared as outlined above. The 96-well plate was incubated for 3 h at 37 °C. The 96-well plate was then removed from the incubator, and 25 µl of each solution was added in triplicate to 6-mm wells on TSA (6 g/L yeast) plates inoculated with 200 µl L. monocytogenes ATCC1916. The plates were incubated at 37 °C for 24 h, after which the inhibition zones were measured using an electronic Vernier callipers.

[3] = cited from earlier work
Excerpt: (§3) Gardiner et al., however, reported that α-chymotrypsin alone degrades lacticin 3147 [21]. Lacticin 3147 is heat stable, pH stable, and active at a neutral pH [9]. However, quantitative data on the amount of lacticin 3147 dissolved, i.e. its solution concentration, is rarely reported. In fact, only a handful of quantitative solubility studies on bacteriocins can be found in the literature [[ ...

pepsin [4] = biological target: T2, pepsin; details: cited from earlier work
Excerpt: as §3

trypsin = details: cited from earlier work
Excerpt: as §3

T2 sequence (P00791 60-385): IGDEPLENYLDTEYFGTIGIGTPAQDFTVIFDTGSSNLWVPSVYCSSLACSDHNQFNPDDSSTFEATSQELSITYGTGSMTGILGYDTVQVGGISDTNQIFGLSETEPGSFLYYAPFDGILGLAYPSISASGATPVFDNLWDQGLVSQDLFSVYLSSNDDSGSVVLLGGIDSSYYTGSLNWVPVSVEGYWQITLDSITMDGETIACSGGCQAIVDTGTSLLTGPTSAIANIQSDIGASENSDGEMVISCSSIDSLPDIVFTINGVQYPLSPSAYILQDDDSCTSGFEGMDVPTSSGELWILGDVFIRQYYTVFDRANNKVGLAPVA

lacticin 3147
activity against L. lactis subsp. cremoris HP (L. lactis HP): active
activity against L. monocytogenes ATCC 1916 after incubation with α-chymotrypsin (α-chymotrypsin): growth curve similar to that of the bacterial control
activity against L. monocytogenes ATCC 1916 after incubation with pepsin (pepsin [1]): remains active
zone of inhibition after incubation with α-chymotrypsin, single well ([2]; Fig. 11, first value printed in the picture of the plate): 6 mm
zone of inhibition after incubation with α-chymotrypsin, single well ([2]; Fig. 11, second value printed in the picture of the plate): 6.1 mm
zone of inhibition after incubation with α-chymotrypsin, single well ([2]; Fig. 11, third value printed in the picture of the plate): 6 mm
heat stability [3]: heat stable
pH stability [3]: pH stable
effect of pepsin on activity (pepsin [4]): unaffected
effect of trypsin (trypsin): degraded and inactivated
